Literature values as cited in the CATMoS acute toxicity set (Mansouri et al. 2021).

Assay: rat acute oral toxicity
Details: in vivo

In order of rising LD50:
1. CCOP(=S)(OCC)SCn1ncccc1=O  2.5 mg/kg
2. FC(F)(F)c1nc2c(Cl)c(Br)c(Br)c(Cl)c2[nH]1  3.43 mg/kg
3. COP(=S)(OC)SCn1ncccc1=O  3.5 mg/kg
4. O=C1[C@H]2C[C@@H]3[C@@H]4[C@H]2[C@]2(Cl)[C@@H](Cl)[C@](Cl)([C@H]13)[C@@]4(Cl)C2(Cl)Cl (racemic)  10 mg/kg
5. O=P(O)(O)OC(=CCl)c1ccc(Cl)cc1Cl  13 mg/kg
6. CCOP(=S)(OCC)Oc1ccccc1[N+](=O)[O-]  25 mg/kg
7. CCS(=O)CSP(=S)(OC(C)C)OC(C)C (stereo unspecified)  25 mg/kg
8. CNC(=O)Oc1ccc(SC)c(C)c1  50 mg/kg
9. CNC(=O)Oc1ccccc1C1OCCS1 (stereo unspecified)  56 mg/kg
10. CCOC(CC)(C1=NCC(C)(C)CN1)c1ccc(Cl)cc1 (stereo unspecified)  58 mg/kg
11. c1ccc([I+]c2ccccc2)cc1  60 mg/kg
12. O=NN(CCCl)C(O)=NC1C[C@H]2CC[C@@H]1C2 (stereo partly specified)  83 mg/kg
13. C=C1C[C@@H]1C[C@H](N)C(=O)O  98 mg/kg
14. Cc1cccnc1N  100 mg/kg
15. CNC(=O)Oc1ccccc1C1OCC(C)O1 (stereo unspecified)  110 mg/kg
16. COP(=S)(OC)Oc1ccc(S(C)=O)c(C)c1 (stereo unspecified)  125 mg/kg
17. N#CC(Cl)(Cl)C#N  130 mg/kg
18. CCC(C)(CC)c1cc(N)on1  144 mg/kg
19. CN(C)CC/C=C1\c2ccccc2COc2ccccc21  147 mg/kg
20. O=CN(c1ncnc2c1ncn2C1CC1)C1CC1  175 mg/kg
21. COP(=O)(OC)OC(Br)C(Br)(Br)Br (stereo unspecified)  184 mg/kg
22. Cc1c(O)cccc1O  200 mg/kg
23. CC1=CC(=O)C(C)=C(C)C1=O  200 mg/kg
24. CN(C)C(=O)N(C)N=O  240 mg/kg
25. CN(c1ccc(F)cc1F)c1c([N+](=O)[O-])cc([N+](=O)[O-])cc1C(F)(F)F  250 mg/kg
26. CC(C)(C)C(=O)CC#N  283 mg/kg
27. CCCCCCCCN  315 mg/kg
28. COP(=O)(OC)C(OC(=O)CCl)C(Cl)(Cl)Cl (stereo unspecified)  344 mg/kg
29. Cc1ccccc1N=NN(C)C  350 mg/kg
30. CCCCOCCOC(=O)COc1cc(Cl)c(Cl)cc1Cl  500 mg/kg
31. Cl/C=C/C[N+]12CN3CN(CN(C3)C1)C2  500 mg/kg
32. C=C(C)CC#N  540 mg/kg
33. CN(CO)C(=S)S  590 mg/kg
34. Cc1c(Cl)c(=O)oc2cc(OP(=O)(OCC(C)Cl)OCC(C)Cl)ccc12 (stereo unspecified)  686 mg/kg
35. OB(O)c1ccccc1  740 mg/kg
36. C/C=N/O  740 mg/kg
37. Clc1ccc(C(Cn2ccnc2)OCc2ccsc2Cl)c(Cl)c1 (stereo unspecified)  770 mg/kg
38. CNc1nc(Cl)c(SC)c(N2CCN(C)CC2)n1  800 mg/kg
39. O=C(O)Cc1ccc2c(c1)C(=O)c1ccccc1CN2  810 mg/kg
40. COc1cc(C2c3cc4c(cc3C(OC3OC5COC(c6ccccc6)OC5C(O)C3O)C3COC(=O)C23)OCO4)cc(OC)c1O (stereo unspecified)  823 mg/kg
41. CCN(CC)CCNc1ccc(CO)c2sc3ccccc3c(=O)c12  980 mg/kg
42. CC[N+](CC)(CC)CCO  1000 mg/kg
43. CCCCCOc1cccc(NC(=O)O[C@@H]2CCCC[C@H]2N2CCCC2)c1  1030 mg/kg
44. COc1ccc([N+](=O)[O-])cc1Cl  1180 mg/kg
45. CCCc1ccc(C=O)cc1  1600 mg/kg
46. Cc1c(C(=O)NCCO)[n+]([O-])c2ccccc2[n+]1[O-]  1720 mg/kg
47. O=C(O)C(Br)Br  1740 mg/kg
48. O=C(O)C(F)(F)C(F)(F)C(F)(F)C(F)F  1760 mg/kg
49. CN(C)CN(C)C  1770 mg/kg
50. Cc1ncc([N+](=O)[O-])n1CC(O)CCl (stereo unspecified)  1780 mg/kg
51. CC(=O)c1ccccc1Cl  1820 mg/kg
52. C[N+]1(CC2COC(c3ccccc3)(c3ccccc3)O2)CCCCC1 (stereo unspecified)  1820 mg/kg
53. COc1ccc(CNc2cc(C(O)CNC(C)(C)C)ccc2O)cc1 (stereo unspecified)  1850 mg/kg
54. C[C@]12CCC(=O)C=C1CC[C@@H]1[C@@H]2CC[C@@]2(C)[C@H]1CC[C@]2(C)O  2500 mg/kg
55. O=c1c(Cl)c(Cl)cnn1-c1ccccc1  2520 mg/kg
56. CCCCCCCCCCCCCCCCCC[N+](C)(C)CC(O)CCl (stereo unspecified)  2590 mg/kg
57. CNC(=O)c1cc(-c2ccccc2)ccc1OCCO  2700 mg/kg
58. C[Si](C)(C)CC(=O)O  3000 mg/kg
59. O=S(=O)(c1ccc(NC([C@H](O)[C@@H](O)[C@H](O)[C@H](O)CO)S(=O)(=O)O)cc1)c1ccc(NC([C@H](O)[C@@H](O)[C@H](O)[C@H](O)CO)S(=O)(=O)O)cc1 (stereo partly specified)  3000 mg/kg
60. CCC(COCC1CO1)(COCC1CO1)COCC1CO1 (stereo unspecified)  3400 mg/kg
61. CC(C)(O)C(=O)c1ccc(OCCO)cc1  4080 mg/kg
62. CCCCCOc1ccc(C2SC(=O)NC2=O)cc1OCC (stereo unspecified)  4330 mg/kg
63. COCCOC(=O)CCCCCCCCC(=O)OCCOC  4970 mg/kg
64. CCOC1CCC=CO1 (stereo unspecified)  6160 mg/kg
65. NCCCOCCOCCO  6500 mg/kg
66. Nc1ccc(-c2ccc(-n3nc4ccc5c(S(=O)(=O)O)cc(S(=O)(=O)O)cc5c4n3)cc2)cc1  7210 mg/kg
67. CCOC(=O)[C@H](CCc1ccccc1)N[C@@H](C)C(=O)N(CC(=O)O)C1Cc2ccccc2C1  8260 mg/kg
68. CC1CCC(=O)O1 (stereo unspecified)  8800 mg/kg
69. CCCCOC(OCCCC)C(OCCCC)OCCCC  8900 mg/kg
70. NCCOC(=O)c1ccccc1  9270 mg/kg
71. CCCCOCCOCCOC(=O)c1ccccc1C(=O)OCCOCCOCCCC  9700 mg/kg
